Reference: ChEMBL document CHEMBL1201862, “PubChem BioAssay data set” (2004)
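Growth conditions: 96-well plates. Treatment: test compound, 48 hours, 5 concentrations. Analysis: linear interpolation between bracketing concentrations; unreached endpoints set to highest concentration. Here, GI50 denotes the concentration required for 50% inhibition of growth.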 Activity calls are given as the source filed them. Rule as the data show it: active = GI50 up to about 1.1 µM and inactive = higher.

Experiments:
Assay in all cases: inhibition of tumour cell growth, NCI panel, 48 h
[1] = test system: SNB-78
[2] = test system: DMS-273
[3] = test system: LXFL 529
[4] = test system: DMS-114
[5] = test system: M19-MEL
[6] = test system: XF498
[7] = test system: KM-20L2
[8] = test system: HOP-18
[9] = test system: RXF 631

Structure (SMILES)	GI50 [1]	GI50 [2]	GI50 [3]	GI50 [4]	GI50 [5]	GI50 [6]	GI50 [7]	GI50 [8]	GI50 [9]
NC(=S)NNc1c([N+](=O)[O-])cnn(-c2ccccc2)c1=O	23.3 µM (inactive)	18.3 µM (inactive)	9.02 µM (inactive)	17.3 µM (inactive)	13.2 µM (inactive)	18.7 µM (inactive)	15.9 µM (inactive)		
Clc1cc2nc[nH]c2cc1Cl	> 100 µM (inactive)	> 100 µM (inactive)	> 100 µM (inactive)	> 100 µM (inactive)	> 100 µM (inactive)	20.1 µM (inactive)		> 100 µM (inactive)	
CCO/S(=N/S(=O)(=O)c1ccccc1)c1ccccc1[N+](=O)[O-] (stereo not drawn)		> 100 µM (inactive)	> 100 µM (inactive)	> 100 µM (inactive)	> 100 µM (inactive)	> 100 µM (inactive)	> 100 µM (inactive)	> 100 µM (inactive)	
CC(C)(C)C(=O)C(c1ccc(-c2cscn2)cc1)c1ccc(-c2cscn2)cc1	18.5 µM (inactive)	58.3 µM (inactive)	39.7 µM (inactive)		65 µM (inactive)	27.3 µM (inactive)	> 100 µM (inactive)	67.5 µM (inactive)	22.7 µM (inactive)
CC1(C)COC(C2(C)C(=O)C=C(c3ccccc3)c3ccccc32)=N1 (stereo not drawn)			41.3 µM (inactive)	38.7 µM (inactive)	42.8 µM (inactive)		40.5 µM (inactive)	> 100 µM (inactive)	33 µM (inactive)
Cc1ccc(NC(=O)CC2Sc3ccccc3NC2=O)c(C)c1 (stereo not drawn)	24.7 µM (inactive)	12.2 µM (inactive)	24.7 µM (inactive)	17.9 µM (inactive)	15.3 µM (inactive)	18.2 µM (inactive)	10.9 µM (inactive)	11 µM (inactive)	7.94 µM (inactive)
CCN(CC)CC(C(=O)Nc1c(C)cccc1C)/C(C)=N\NC(=S)NN (stereo not drawn)		> 100 µM (inactive)	> 100 µM (inactive)		> 100 µM (inactive)	> 100 µM (inactive)	> 100 µM (inactive)		> 100 µM (inactive)
CCOC(=O)NC(=O)c1cn(C2CCCCC2)c(=O)[nH]c1=O	65.9 µM (inactive)	73.3 µM (inactive)	39.7 µM (inactive)		76.4 µM (inactive)	> 100 µM (inactive)	36.3 µM (inactive)	> 100 µM (inactive)	> 100 µM (inactive)
CS/C(=N\c1nccs1)NC(=O)c1cccc(Cl)c1	> 100 µM (inactive)	> 100 µM (inactive)	91 µM (inactive)	> 100 µM (inactive)	85.9 µM (inactive)		> 100 µM (inactive)	> 100 µM (inactive)	16.8 µM (inactive)
CC1=CP(=O)(c2ccccc2)C=C(C)C1=C(Cl)Cl (stereo not drawn)	2.98 µM (inactive)	3.3 µM (inactive)	3.27 µM (inactive)	10.8 µM (inactive)	12.2 µM (inactive)	17.4 µM (inactive)	2.48 µM (inactive)	18.7 µM (inactive)	
NC(CCSCC(F)F)C(=O)O (stereo not drawn)	> 100 µM (inactive)	> 100 µM (inactive)	> 100 µM (inactive)	> 100 µM (inactive)	> 100 µM (inactive)	> 100 µM (inactive)	> 100 µM (inactive)	> 100 µM (inactive)	> 100 µM (inactive)
CCOC(=O)C(=O)Nc1nc2ccc(OC)cc2s1	> 100 µM (inactive)	> 100 µM (inactive)	> 100 µM (inactive)		> 100 µM (inactive)		> 100 µM (inactive)	> 100 µM (inactive)	
O=C1C2Nc3ccccc3SC2C(=O)N1c1ccc(Br)cc1 (stereo not drawn)	14.2 µM (inactive)	21.6 µM (inactive)	20.7 µM (inactive)	13.5 µM (inactive)	57.1 µM (inactive)	35.6 µM (inactive)	33.2 µM (inactive)		
COc1cc(O)c2c(c1)O[C@@H]1OCC[C@H]21	> 100 µM (inactive)	> 100 µM (inactive)	> 100 µM (inactive)	> 100 µM (inactive)		> 100 µM (inactive)	> 100 µM (inactive)	> 100 µM (inactive)	
COc1cc([C@@H]2c3cc4c(cc3[C@@H](NC(=O)c3cccc(F)c3)C3COC(=O)[C@@H]32)OCO4)cc(OC)c1O (stereo partly drawn)	15.5 µM (inactive)	0.153 µM (active)	5.5 µM (inactive)	0.607 µM (active)	3.22 µM (inactive)		1.68 µM (inactive)	> 100 µM (inactive)	
c1c[nH]c(Cc2nc(Cc3c[nH]cn3)c[nH]2)n1		15.2 µM (inactive)	6.7 µM (inactive)	16.3 µM (inactive)	15.4 µM (inactive)	25.8 µM (inactive)	0.946 µM (active)	8.28 µM (inactive)	
CC(C)(C)C1CCP(=O)(c2ccccc2)CC1 (stereo not drawn)	> 100 µM (inactive)	> 100 µM (inactive)	> 100 µM (inactive)	> 100 µM (inactive)	> 100 µM (inactive)	2.1 µM (inactive)	> 100 µM (inactive)	> 100 µM (inactive)	
COc1cc2c[n+]3ccc4cc(OC)c(OC)cc4c3cc2cc1O			> 100 µM (inactive)		> 100 µM (inactive)	> 100 µM (inactive)	> 100 µM (inactive)	> 100 µM (inactive)	> 100 µM (inactive)
Cc1ccc(Cl)c(NC(=O)C(=O)C(C(=O)c2ccncc2)C2OC(=O)c3ccccc32)c1 (stereo not drawn)	> 100 µM (inactive)		> 100 µM (inactive)	> 100 µM (inactive)	> 100 µM (inactive)	> 100 µM (inactive)		> 100 µM (inactive)	> 100 µM (inactive)
O=C1CCNC/C1=C\c1ccccc1	32.8 µM (inactive)	25.8 µM (inactive)	16.1 µM (inactive)	24.1 µM (inactive)	17.9 µM (inactive)	23.9 µM (inactive)	14.7 µM (inactive)	> 10 µM (inactive)	26.5 µM (inactive)
Cc1cc(C(=O)N2CCN(Cc3ccccc3)CC2)c(C)o1	> 100 µM (inactive)		> 100 µM (inactive)	> 100 µM (inactive)	> 100 µM (inactive)	> 100 µM (inactive)	> 100 µM (inactive)	> 100 µM (inactive)	
COc1cc2c(cc1OC)-c1c(cc(OC)c(OC)c1OC)C2=O			> 100 µM (inactive)	> 100 µM (inactive)	> 100 µM (inactive)		> 100 µM (inactive)	> 100 µM (inactive)	92.9 µM (inactive)
CC1CCCc2c1c1ccc3c(O)cccc3c1oc2=O (stereo not drawn)	23.1 µM (inactive)	31.1 µM (inactive)	48.8 µM (inactive)	19.6 µM (inactive)	> 100 µM (inactive)	55 µM (inactive)	> 100 µM (inactive)	26.6 µM (inactive)	
